Data reported in patent publication US8791303B2, “Herbicides” (Syngenta Limited, priority 2009, dated 2014).

Assays:
[1] = test system: Alopecurus myosuroides (ALOMY); assay: Example A glasshouse herbicide test, pre-emergence, ALOMY; type: in vivo; settings: Alopecurus myosuroides, pre-emergence, 312 h, Rate 250 g/ha, sprayed after cultivation for one day, evaluated after 13 days, read-out: Pre-Emergence Activity ALOMY (100=total damage to plant; 0=no damage to plant)
In short: (§1)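 Seeds sown in standard soil in pots were sprayed 1 day (pre-emergence) or 8 days (post-emergence) after sowing with compound formulated in acetone/water (50:50) containing 0.5% Tween 20. Plants were kept at 24/16° C. day/night, 14 hours light, 65% humidity, and damage was scored after 13 days (0–100).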

[2] = test system: Alopecurus myosuroides (ALOMY); assay: Example A glasshouse herbicide test, post-emergence, ALOMY; type: in vivo; settings: Alopecurus myosuroides, post-emergence, 312 h, Rate 250 g/ha, sprayed after 8 days cultivation, evaluated after 13 days, read-out: Post-Emergence Activity ALOMY (100=total damage to plant; 0=no damage to plant)
In short: as §1

Lolium perenne (LOLPE) [3] = assay: Example A glasshouse herbicide test, post-emergence, LOLPE; type: in vivo; settings: Lolium perenne, post-emergence, 312 h, Rate 250 g/ha, sprayed after 8 days cultivation, evaluated after 13 days, read-out: Post-Emergence Activity LOLPE (100=total damage to plant; 0=no damage to plant)
In short: as §1

Lolium perenne (LOLPE) [4] = assay: Example A glasshouse herbicide test, pre-emergence, LOLPE; type: in vivo; settings: Lolium perenne, pre-emergence, 312 h, Rate 250 g/ha, sprayed after cultivation for one day, evaluated after 13 days, read-out: Pre-Emergence Activity LOLPE (100=total damage to plant; 0=no damage to plant)
In short: as §1

[5] = test system: Echinochloa crus-galli (ECHCG); assay: Example A glasshouse herbicide test, pre-emergence, ECHCG; type: in vivo; settings: Echinochloa crus-galli, pre-emergence, 312 h, Rate 250 g/ha, sprayed after cultivation for one day, evaluated after 13 days, read-out: Pre-Emergence Activity ECHCG (100=total damage to plant; 0=no damage to plant)
In short: as §1

Avena fatua (AVEFA) [6] = assay: Example A glasshouse herbicide test, pre-emergence, AVEFA; type: in vivo; settings: Avena fatua, pre-emergence, 312 h, Rate 250 g/ha, sprayed after cultivation for one day, evaluated after 13 days, read-out: Pre-Emergence Activity AVEFA (100=total damage to plant; 0=no damage to plant)
In short: as §1

[7] = test system: Echinochloa crus-galli (ECHCG); assay: Example A glasshouse herbicide test, post-emergence, ECHCG; type: in vivo; settings: Echinochloa crus-galli, post-emergence, 312 h, Rate 250 g/ha, sprayed after 8 days cultivation, evaluated after 13 days, read-out: Post-Emergence Activity ECHCG (100=total damage to plant; 0=no damage to plant)
In short: as §1

Avena fatua (AVEFA) [8] = assay: Example A glasshouse herbicide test, post-emergence, AVEFA; type: in vivo; settings: Avena fatua, post-emergence, 312 h, Rate 250 g/ha, sprayed after 8 days cultivation, evaluated after 13 days, read-out: Post-Emergence Activity AVEFA (100=total damage to plant; 0=no damage to plant)
In short: as §1

[9] = test system: Winter Wheat variety 'Hereward'; assay: Example B crop damage test, post-emergence, wheat seed treated with safener cloquintocet mexyl; type: in vivo; settings: Rate 250 g/ha; post-emergence spray 8 days after sowing; seed treated with cloquintocet mexyl 0.5 g/kg dry seed; evaluated after 13 days
Method: Seeds of the Winter Wheat variety ‘Hereward’ were seed treated with a wettable powder formulation of the cereal herbicide safener, cloquintocet mexyl, at a rate of 0.5 grams per kilogram of dry seed prior to the initiation of glasshouse testing. One seed was sown per 1.5 inch plastic pot into a sandy loam soil at a depth of 1 cm, 8 days prior to application of the test compounds and was watered and grown under controlled conditions in a glasshouse (at 24/16° C., day/night; 14 hours light; 65% humidity). The plants were sprayed post-emergence with an aqueous spray solution derived from the formulation of the technical active ingredient in acetone/water (50:50) solution containing 0.5% Tween 20 (polyoxyethelyene sorbitan monolaurate, CAS RN 9005-64-5).
(§2) The test plants were then grown in a glasshouse under controlled conditions in a glasshouse (at 24/16° C., day/night; 14 hours light; 65% humidity) and watered twice daily. After 13 days for pre and post-emergence, the test was evaluated (100=total damage to plant; 0=no damage to plant).

[10] = test system: Winter Wheat variety 'Hereward'; assay: Example B crop damage test, post-emergence, unsafened wheat; type: in vivo; settings: Rate 250 g/ha; post-emergence spray after 8 days cultivation; no safener; evaluated after 13 days
Method: Seeds of the Winter Wheat variety ‘Hereward’ were sown in standard soil in pots. After 8 days cultivation under controlled conditions in a glasshouse (at 24/16° C., day/night; 14 hours light; 65% humidity), the plants were sprayed post-emergence with an aqueous spray solution derived from the formulation of the technical active ingredient in acetone/water (50:50) solution containing 0.5% Tween 20 (polyoxyethelyene sorbitan monolaurate, CAS RN 9005-64-5).
as §2

SMILES	pest or weed control at 250 g/ha [1] [%]	pest or weed control at 250 g/ha [2] [%]	pest or weed control at 250 g/ha (Lolium perenne (LOLPE) [3]) [%]	pest or weed control at 250 g/ha (Lolium perenne (LOLPE) [4]) [%]	pest or weed control at 250 g/ha [5] [%]	pest or weed control at 250 g/ha (Avena fatua (AVEFA) [6]) [%]	melting point [°C]	pest or weed control at 250 g/ha [7] [%]	pest or weed control at 250 g/ha (Avena fatua (AVEFA) [8]) [%]	Winter Wheat (Hereward) + cloquintocet mexyl damage (100=total damage to plant; 0=no damage to plant) [9]	Winter Wheat (Hereward) damage (100=total damage to plant; 0=no damage to plant) [10]
Cc1cc(C)c(C2C(=O)CC(Cc3cccc(Oc4ccccc4)c3)C2=O)c(C)c1 (centres unmarked) [Compound A13]	10	30	20	40	20	0	192 to 194.8	20	30		
Cc1cc(C)c(C2C(=O)CC(Cc3ccc(F)cc3)C2=O)c(C)c1 (centres unmarked) [Compound A12]							183.1 to 183.2				
Cc1cc(C)c(C2C(=O)CC(Cc3ccccc3F)C2=O)c(C)c1 (centres unmarked) [Compound A14]	70	80	90	100	90	40	197.8 to 210.2	80	30	20	30
Cc1cccc(CC2CC(=O)C(c3c(C)cc(C)cc3C)C2=O)c1 (centres unmarked) [Compound A18]	80	80	90	100	100	50	173 to 179	50	50	10	20
Cc1cc(C)c(C2C(=O)CC(Cc3ccc(CS(=O)(=O)c4ccccc4)cc3)C2=O)c(C)c1 (centres unmarked) [Compound A22]	0	0	20	20	30	0	189 to 191.7	20	10		
Cc1cccc(C)c1C1C(=O)CC(CC2CCCCC2)C1=O (centres unmarked) [Compound A10, 4-cyclohexylmethyl-2-(2,6-dimethyl-phenyl)-cyclopentane-1,3-dione]	0	20	40	80	20	0		70	20	0	10
Cc1cc(C)c(C2C(=O)C/C(=C\C3CCCC(C)C3)C2=O)c(C)c1 (centres unmarked) [Compound A30]	80	60	60	100	100	70		80	70	0	50
Cc1cc(C)c(C2C(=O)CC(CC3CCCC(C)C3)C2=O)c(C)c1 (centres unmarked) [Compound A32]	70	70	100	90	100	50		100	90	0	30
Cc1cc(C)c(C2C(=O)CC(Cc3ccc(-c4csnn4)cc3)C2=O)c(C)c1 (centres unmarked) [Compound A16]	10	20	30	70	80	30	225 to 232	50	50		
Cc1cc(C)c(C2C(=O)CC(CC3CCCCCC3)C2=O)c(C)c1 (centres unmarked) [Compound A35]	50	50	80	30	100	50		80	20	0	20
Cc1cc(C)c(C2C(=O)C/C(=C\C3CCCC3)C2=O)c(C)c1 (centres unmarked) [Compound A4]	100	70	60	100	100	70		90	70	0	60
Cc1cc(C)c(C2C(=O)CC(CC3CC3)C2=O)c(C)c1 (centres unmarked) [Compound A28, 4-Cyclopropylmethyl-2-(2,4,6-trimethyl-phenyl)-cyclopentane-1,3-dione]	90	70	100	100	100	70		90	50	10	30
